Measurements taken from US4107308A, “Imidazo[1,5-d]-as-triazines” (American Cyanamid Company, priority 1977, dated 1978).

Experiments:
[1] = test system: spontaneous hypertensive rats; test: Anti-hypertensive test in conscious spontaneous hypertensive rats, mean arterial blood pressure by femoral artery puncture; assay type: in vivo, rat; details: 100 mg./kg. by gavage in 2% starch, second identical dose at the 24th hour, vehicle controls 166
Procedure: These compounds have been tested pharmacologically and found to have such properties with a desirable wide spread between does producing lowered blood pressure and toxic symptoms. In determining this effect of these compounds on hypertension, adult male, 16-20 weeks old, spontaneous hypertensive rats from Taconic Farms, Germantown, New York, weighing about 300 grams are used. The rats are dosed by gavage with the test compounds at the indicated dose in mg. per kg. of body weight. All doses of drug were suspended in 2% starch (2 ml./kg.). A second identical dose of the test compound is given at the 24th hour. The mean arterial blood pressure (MAP) of the conscious rats is measured directly by femoral artery puncture at the 28th hour.

[2] = test system: cyclic-AMP phosphodiesterase (mouse skin PDE); test: Mouse skin phosphodiesterase (PDE) inhibition test (A); assay type: biochemical; parameters: key: Active: A compound is considered active if it inhibits more than theophylline, that is, to 50% of control of 1 mM concentration of compound, or to 80% of control for 0.05 mM concentration of compound; details: final concentration of test compound 10 μg./ml.; epidermal homogenate supernatant of hairless mice

Compound | MAP (mm. Hg) 28th hour [1] [mm. Hg] | Mouse Skin Phosphodiesterase (A) [2] | herbicidal activity (Herbicidal activity)
c1cc(Nc2nncc3cncn23)n[nH]1 [4-(3-Pyrazolylamino)-imidazo[1,5-d]-as-triazine] | 134 | Active | 
CN(C)CCNc1nncc2cncn12 [4-[(2-Dimethylaminoethyl)amino]-imidazo[1,5-d]-as-triazine] |  | Active | 
CNc1nncc2cncn12 [4-methylamino-imidazo[1,5-d]-as-triazine, 4-Methylamino-imidazo[1,5-d]-as-triazine] | 131 |  | 
CCCc1nc(C)c2cnnc(SC)n12 [Example 61, 8-Methyl-4-(methylthio)-6-propylimidazo[1,5-d]-as-triazine] |  |  | possesses herbicidal activity
